Reference: patent US20200087516A1, “RED FLUORESCENT PROBE FOR USE IN DETECTION OF PEPTIDASE ACTIVITY” (The University of Tokyo, priority 2017, published 2020)

How the values were obtained:
[1] = pKcycl measured values of existing rhodamine derivatives (model structures); type: physicochemical; conditions: Table 1, model structures
Description: A formula that calculates pKcycl from the free energy difference of the closed-ring form/ring-opened form by the analyzed cationic reaction was derived, assuming that acid-base equilibrium (lateral direction in the model) is reached quickly enough in the HM groups and amino groups. When the calculation results of close-1, open-1 were used as this free energy difference, it was understood that pKcycl of existing derivatives is accurately reproduced.

[2] = Fluorescence quantum yield; type: physicochemical; conditions: pH 3.0
[3] = test system: γ-Glutamyl transpeptidase (GGT); test: Enzyme assay of fluorescent probes: fluorescence intensity change on GGT addition; type: biochemical; conditions: 1 μM probe, 10 mM NaPi buffer pH 7.4, 37° C., 1.1 U GGT; 585 nm (probe 1), 613 nm (probe 2)
Experimental: γ-Glutamyl transpeptidase (GGT) was added to fluorescent probes 1 and 2 of the present invention, and the changes in fluorescence intensity were measured.
Fluorescent probe 1 or 2 was dissolved to make 1 μM in 2.5 mL of 10 mM NaPi buffer (pH 7.4) containing 0.03% DMSO. The solution, kept at 37° C., was stirred using a magnetic stirrer, and the fluorescence intensity was measured. 1.1 U of GGT was added two minutes after the start of measurement in experiments other than the negative control. The fluorescence intensity of fluorescent probe 1 at 585 nm was measured for a total of 6000 seconds and the fluorescence intensity of probe 2 at 613 nm was measured for a total of 2400 seconds, and plotted as a function of time elapsed. The excitation wavelength was 550 nm for fluorescent probe 1 and 593 nm for fluorescent probe 2; the slit width was 2.4 nm, 5.0 nm for both excitation and fluorescence, and the photomultiplier tube voltage was 700 V.
As a result, the fluorescence intensity was confirmed to increase due to addition of GGT in the case of both fluorescent probes 1 and 2. The quantum yield of fluorescent probe 1 was 0.58 at pH 3.0. The quantum yield of fluorescent probe 2 was 0.26 at pH 3.0.

[4] = Absorption/fluorescence spectrum measurement of the fluorescent probes (pKcycl from absorption spectra); type: physicochemical; conditions: computed from absorption spectra (FIG. 2, FIG. 4)
Description: The absorption spectra and fluorescence spectra of fluorescent probe 1 (gGlu-MHM4ThPCR550) and fluorescent probe 2 (gGlu-HM3ThPSiR600) synthesized in Example 1 were each measured.
FIGS. 2 and 3 respectively show the absorption spectra and fluorescence spectra of fluorescent probe 1 (gGlu-MHM4ThPCR550) and, as a comparison, MHM4ThPCR550 having no gGlu group. The pKcycl values computed from the results in FIG. 2 are shown below in Table 3.
The absorption spectra of HM3ThPSiR600 and HM3ThPAcSiR600 having no gGlu group are also shown as a comparison.

[5] = test system: SHIN3 cells disseminated intraperitoneally; test: In vivo imaging using cancer peritoneal dissemination model mice; conditions: 100 μM, 300 μL intraperitoneally, five minutes after administration
Experimental: A quantity of 300 μL of 100 μM fluorescent probes 1 and 2 was injected intraperitoneally into model mice that had been injected intraperitoneally with SHIN3. After five minutes, the mice were placed under isoflurane anesthesia and laparotomized, and imaging was conducted by a Maestro imager.
Fluorescence spectrum imaging was conducted using a mouse model in which SHIN3 cells had been disseminated intraperitoneally. SHIN3-disseminated model mice were established by intraperitoneally injecting 3×10^6 SHIN3 cells suspended in 300 μL of PBS(−) into seven-week-old female nude mice. The experiment was conducted 29-30 days after injection. The probe solution (100 μM, 300 μL) dissolved in PBS(−) was injected intraperitoneally and allowed to stand for five minutes. The mice were then anesthetized by inhalation of isoflurane, and the skin of the abdomen was cut open. The intestine was removed from the incision, placed on a black rubber plate, and the mesentery was spread. It was applied dropwise to the spread mesentery. Fluorescence imaging was conducted using a Maestro™ Ex In-Vivo Imaging System (CRi Inc.). […] An image with the wavelength of fluorescence derived from the probe cut out or an image spectrally unmixed with autofluorescence is shown. […]

Compound	pKcycl (Measured) [1]	quantum yield [2]	change in fluorescence intensity due to addition of GGT [3]	pKcycl (Measured) [4]	fluorescence imaging of tumors on the mesentery [5]
N=c1ccc2c(-c3ccccc3CO)c3ccc(N)cc3oc-2c1 [HMRG]	8.1	–	–	–	–
CC1OC2(c3ccc(N)cc3C(C)(C)c3cc(NC(=O)CC[C@H](N)C(=O)O)ccc32)c2ccsc21 (stereo partly drawn) [fluorescent probe 1]	–	0.58	increase	6.3	small tumors having adequate contrast from the background could be observed
C[Si]1(C)c2cc(N)ccc2C2(OCc3sccc32)c2ccc(NC(=O)CC[C@H](N)C(=O)O)cc21 (stereo partly drawn) [fluorescent probe 2]	–	0.26	increase	5.4	small tumors having adequate contrast from the background could be observed
